Columns and labels:
[1] = target: mTOR (Homo sapiens, UniProt P42345); assay: mTOR inhibition (Table 1); format: biochemical; conditions: Table 1, no method described
[2] = target: T1, PI3Kβ (Homo sapiens, UniProt P42338); assay: ELISA assay for PI3Kβ: in-cell ELISA, phosphorylation of AKT (Ser473) in PC-3 cells; format: cell-based; conditions: for IC50: cellular, pAKT (Ser473), PC-3 cells, LPA stimulation, read-out: IC50 p110β; for α/β ratio: ratio of cellular IC50 values, Table 2
T1 construct: endogenous in cells; host or cells: PC-3 (ATCC #CRL-1435)
T1 sequence (P42338 whole entry): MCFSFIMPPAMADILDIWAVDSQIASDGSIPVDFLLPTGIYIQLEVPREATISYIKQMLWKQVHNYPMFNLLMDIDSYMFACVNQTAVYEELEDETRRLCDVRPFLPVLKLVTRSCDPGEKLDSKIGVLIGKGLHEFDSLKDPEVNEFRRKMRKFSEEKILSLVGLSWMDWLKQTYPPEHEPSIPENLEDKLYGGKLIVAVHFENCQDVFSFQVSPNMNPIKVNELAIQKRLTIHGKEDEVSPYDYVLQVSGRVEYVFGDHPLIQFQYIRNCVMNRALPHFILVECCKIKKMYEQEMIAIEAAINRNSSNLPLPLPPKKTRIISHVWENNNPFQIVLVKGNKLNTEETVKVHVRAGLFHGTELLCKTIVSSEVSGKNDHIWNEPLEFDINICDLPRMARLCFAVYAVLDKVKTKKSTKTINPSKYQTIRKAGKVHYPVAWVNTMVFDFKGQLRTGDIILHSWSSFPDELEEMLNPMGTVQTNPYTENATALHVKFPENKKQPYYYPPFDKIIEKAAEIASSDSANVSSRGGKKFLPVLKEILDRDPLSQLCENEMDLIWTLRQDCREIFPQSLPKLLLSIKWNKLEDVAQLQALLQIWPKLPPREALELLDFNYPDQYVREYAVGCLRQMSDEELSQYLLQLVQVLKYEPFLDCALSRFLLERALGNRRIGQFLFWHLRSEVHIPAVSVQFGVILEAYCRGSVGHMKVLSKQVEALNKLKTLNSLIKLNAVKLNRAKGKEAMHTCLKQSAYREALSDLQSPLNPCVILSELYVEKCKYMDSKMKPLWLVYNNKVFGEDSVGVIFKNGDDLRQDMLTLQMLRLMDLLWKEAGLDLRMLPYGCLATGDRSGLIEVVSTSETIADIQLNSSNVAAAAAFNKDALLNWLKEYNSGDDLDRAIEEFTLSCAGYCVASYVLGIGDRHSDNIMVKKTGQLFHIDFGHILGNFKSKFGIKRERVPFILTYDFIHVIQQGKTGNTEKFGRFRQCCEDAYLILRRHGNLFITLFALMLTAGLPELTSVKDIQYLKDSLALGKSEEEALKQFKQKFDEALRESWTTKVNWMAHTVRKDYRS
T1 sequence (P27986 whole entry partner): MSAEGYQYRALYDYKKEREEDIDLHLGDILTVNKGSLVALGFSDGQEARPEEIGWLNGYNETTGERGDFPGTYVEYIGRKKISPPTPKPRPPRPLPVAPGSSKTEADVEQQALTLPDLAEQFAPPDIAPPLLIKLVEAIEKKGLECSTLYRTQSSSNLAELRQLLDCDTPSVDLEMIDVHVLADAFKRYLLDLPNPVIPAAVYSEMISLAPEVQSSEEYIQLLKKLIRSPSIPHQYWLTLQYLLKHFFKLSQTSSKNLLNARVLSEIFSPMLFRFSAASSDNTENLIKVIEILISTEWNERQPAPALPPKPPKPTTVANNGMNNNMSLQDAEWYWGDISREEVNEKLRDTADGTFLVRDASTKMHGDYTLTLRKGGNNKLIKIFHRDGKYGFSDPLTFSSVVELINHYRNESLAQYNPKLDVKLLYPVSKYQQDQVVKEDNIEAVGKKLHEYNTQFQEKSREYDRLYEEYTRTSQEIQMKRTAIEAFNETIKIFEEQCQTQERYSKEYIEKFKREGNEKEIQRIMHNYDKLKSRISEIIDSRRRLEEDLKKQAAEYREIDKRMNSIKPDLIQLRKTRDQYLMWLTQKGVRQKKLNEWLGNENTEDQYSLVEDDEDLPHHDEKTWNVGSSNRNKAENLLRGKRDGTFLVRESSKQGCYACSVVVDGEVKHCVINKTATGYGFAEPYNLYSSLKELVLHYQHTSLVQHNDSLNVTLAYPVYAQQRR
Description: Cellular PI3Kβ activity was determined by measuring the phosphorylation of AKT (Ser473) using an in-cell ELISA assay. PC-3 (prostate carcinoma) cells were obtained from ATCC (ATCC #CRL-1435). Growth medium was DMEM (CellGro #CV-10-013-CV) supplemented with 10% fetal bovine serum, 100 IU/mL penicillin, 100 μg/mL streptomycin, and 1×MEM non-essential amino acids. Phosphate buffered saline (PBS) contained 2.7 M NaCl, 54 mM KCl, 86 mM […] (dibasic, anhydrous), 28 mM […] (monobasic, anhydrous), pH 7.2, 10× stimulation mixture contained 50 μM LPA (Cayman #62215) diluted in serum-free DMEM medium (CellGro #CV-10-013-CV). Compounds for testing were dissolved and serially diluted in 100% DMSO (total of 10 concentrations), then diluted in serum-free DMEM to 2× final assay concentration. 2× fixative solution contained 8% formaldehyde (Amresco #M134) diluted in PBS. Permeabilization solution contained PBS supplemented with 0.1% Triton X-100. Blocking buffer was obtained from LiCor (LiCor #927-40000). Wash buffer contained PBS supplemented with 0.1% Tween-20. Primary antibody solution was rabbit anti-pAKT^S473 monoclonal antibody (Cell Signaling #4060) and mouse anti-total S6 (Santa Cruz #74459) diluted 1:500 and 1:2000, respectively, in blocking buffer. Secondary antibody solution was IRDye 800CW-conjugated goat anti-rabbit IgG (LiCor #926-32211) and IRDye 680LT-conjugated goat anti-mouse IgG (LiCor #926-68020) diluted 1:2000 and 1:1000, respectively, in blocking buffer.
PC-3 cells were subcultured in growth medium and seeded into flat, clear bottom, 96-well plates (Corning #3904) at 16000 cells/well, then incubated overnight in a 37° C., 5% CO2 incubator. Growth medium in plates was replaced with 100 μL/well serum-free DMEM and incubated overnight in a 37° C., 5% CO2 incubator. 50 μL/well of fresh serum-free DMEM was added to plates. Compound treatment was performed by adding 50 μL/well of 2× compound mixture to plates and incubating for 2 hrs at 37° C., 5% CO2, after which 11 μL/well of 10× stimulation mixture was added and plates were incubated for 10 min at 37° C., 5% CO2. Fixation was performed by adding 110 μL/well of 2× fixative solution to plates and incubating for 20 min at room temperature. Permeabilization was performed by replacing fixation solution with 150 μL/well permeabilization solution and incubating for 10 min at room temperature. Permeabilization was repeated (for a total of 2 times). Permeabilization solution was replaced with 100 μL/well blocking buffer and plates were incubated for 1 hr at room temperature, after which 100 μL/well of primary antibody solution was added and plates were incubated overnight at 4° C. Plates were washed with wash buffer, after which 100 μL/well of secondary antibody solution was added to the plates and incubated in the dark for 1 hr at room temperature. Plates were washed with wash buffer, followed by awash with PBS. After completely removing PBS, plates were scanned on the Licor Odyssey Imager. Images quantified using Licor Odyssey application software. IC50 values were determined by curve fitting using a Collaborative Drug Discovery database (www.collaborativedrug.com).

[3] = target: T2, PI3Kδ (Homo sapiens, UniProt O00329); assay: ELISA assay for PI3Kδ: sandwich ELISA, phosphorylation of AKT (Thr308) in Raji cells; format: cell-based; conditions: for IC50: cellular, pAKT (Thr308), Raji cells, anti-Human IgM stimulation, read-out: IC50 p110δ; for α/δ ratio / γ/δ ratio / β/δ ratio: ratio of cellular IC50 values, Table 2
T2 construct: endogenous in cells; host or cells: Raji (ATCC #CCL-86)
T2 sequence (O00329 whole entry): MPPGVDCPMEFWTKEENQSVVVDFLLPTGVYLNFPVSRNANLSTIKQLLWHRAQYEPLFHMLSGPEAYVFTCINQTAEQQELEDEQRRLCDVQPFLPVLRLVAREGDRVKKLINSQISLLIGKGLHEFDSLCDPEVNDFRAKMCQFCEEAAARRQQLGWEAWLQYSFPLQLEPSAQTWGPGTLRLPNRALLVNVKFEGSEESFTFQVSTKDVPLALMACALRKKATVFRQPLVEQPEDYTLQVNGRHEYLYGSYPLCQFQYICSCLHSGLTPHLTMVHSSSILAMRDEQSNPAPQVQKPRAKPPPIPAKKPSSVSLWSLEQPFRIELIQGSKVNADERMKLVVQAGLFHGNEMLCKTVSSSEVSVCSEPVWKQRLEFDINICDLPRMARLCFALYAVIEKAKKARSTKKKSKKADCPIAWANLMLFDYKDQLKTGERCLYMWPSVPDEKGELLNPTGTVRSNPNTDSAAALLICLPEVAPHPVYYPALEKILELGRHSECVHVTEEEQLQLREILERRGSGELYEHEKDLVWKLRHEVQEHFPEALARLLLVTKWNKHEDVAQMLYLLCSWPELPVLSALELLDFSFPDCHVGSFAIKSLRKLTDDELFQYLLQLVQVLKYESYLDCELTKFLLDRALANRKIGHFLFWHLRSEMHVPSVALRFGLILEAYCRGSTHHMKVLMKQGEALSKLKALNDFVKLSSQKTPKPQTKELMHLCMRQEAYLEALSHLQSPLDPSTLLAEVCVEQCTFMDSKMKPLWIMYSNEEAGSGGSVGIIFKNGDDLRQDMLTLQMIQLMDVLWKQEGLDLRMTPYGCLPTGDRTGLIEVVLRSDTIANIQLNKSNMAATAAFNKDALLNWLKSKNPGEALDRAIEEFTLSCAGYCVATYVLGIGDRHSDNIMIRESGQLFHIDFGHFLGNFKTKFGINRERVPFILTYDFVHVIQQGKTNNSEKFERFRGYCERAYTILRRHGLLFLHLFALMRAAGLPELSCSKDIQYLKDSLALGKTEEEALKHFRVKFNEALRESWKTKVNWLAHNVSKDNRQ
T2 sequence (P27986 whole entry partner): as the sequence (P27986 whole entry partner) above
Description: Cellular PI3Kδ activity was determined by measuring the phosphorylation of AKT (Thr308) using a sandwich enzyme-linked immunosorbant assay (ELISA). Raji (Burkitt's Lymphoma) cells were obtained from ATCC (ATCC #CCL-86). Phosphate buffer saline (PBS) contained 2.7 M NaCl, 54 mM KCl, 86 mM […] (dibasic, anhydrous), and 28 mM […] (monobasic, anhydrous) at pH 7.2. Wash buffer contained PBS supplemented with 0.05% Tween-20. Blocking buffer contained wash buffer supplemented with 1% BSA. A 10× stimulation mixture contained 5 μg/mL anti-Human IgM antibody (Sigma #12386) diluted in serum-free RPMI medium (CellGro #CV-10-040-CV). Compounds for testing were dissolved and serially diluted in 100% DMSO (total of 10 concentrations), and then diluted in serum-free RPMI to 5×final assay concentration.
Raji cells were subcultured in RPMI medium supplemented with 10% fetal bovine serum, 100 IU/mL penicillin, 100 μg/mL streptomycin, and 1×MEM non-essential amino acids. Sandwich ELISA plates were prepared by coating 96-well assay plates (Pierce #15042) with 100 μL/well capture antibody (Cell Signaling Technology #7142 or 7144) diluted in PBS. Plates were incubated overnight at 4° C., then washed with wash buffer, after which 200 μL/well blocking buffer was added to the plates and incubated at room temperature for at least 2 hrs. Raji cells were resuspended in serum-free RPMI medium and seeded into V-bottom, 2-mL 96-well blocks (Corning #3961) at 10^6 cells/well, then incubated for 2 hrs in a 37° C., 5% CO2 incubator. Compound treatment was performed by adding the 5× compound mixture to the cells and incubating for 2 hrs at 37° C., 5% CO2, after which the 10× stimulation mixture was added to the plates and incubated for 30 min at 37° C., 5% CO2. Cells were pelleted by centrifuging plates at 1500 RPM for 5 min at room temperature. Media was carefully removed and cells were lysed by adding 100 μL/well cell lysis buffer (Cell Signaling Technology #9803) supplemented with protease and phosphatase inhibitors (Thermo Fisher #78443). Plates were incubated on ice for 30 min, then the lysates (80 μL for pAKT^T308, 10 μL for total AKT) were transferred to prepared assay plates and incubated at 4° C. overnight. After washing plates with wash buffer, 100 μL/well detection antibody (Cell Signaling Technology #7142 or 7144) diluted in blocking buffer was added to the plates and incubated for 1 hr at 37° C. Plates were washed and 100 μL/well of HRP-conjugated secondary antibody (Cell Signaling Technology #7142 or 7144) diluted in blocking buffer was added to plates and incubated for 1 hr at room temperature. Plates were washed with wash buffer and 100 μL/well of luminescent substrate was added to plates. After 1 min on a plate shaker at medium speed, luminescence was read on a Wallac Victor2 plate reader. IC50 values were determined by curve fitting using a Collaborative Drug Discovery database (www.collaborativedrug.com).

Row | SMILES | IC50 [1] [nM] | IC50 [2] [nM] | α/β ratio [2] | IC50 [3] [nM] | α/δ ratio [3] | γ/δ ratio [3] | β/δ ratio [3]
1 | CC(C)(Cc1cccc(F)c1)Nc1nc(N2CCOCC2)nc(-n2c(C(F)F)nc3ccccc32)n1 [Compound A39, 4-(2-(difluoromethyl)-1H-benzo[d]imidazol-1-yl)-N-(1-(3-fluorophenyl)-2-methylpropan-2-yl)-6-morpholino-1,3,5-triazin-2-amine] | > 500 | ≤ 100 | A’ | ≤ 100 | A’ | A’ | 
2 | CC(C)(Cc1ccccc1-c1cccnc1)Nc1nc(N2CCOCC2)nc(-n2c(C(F)F)nc3ccccc32)n1 [Compound A40, 4-(2-(difluoromethyl)-1H-benzo[d]imidazol-1-yl)-N-(2-methyl-1-(2-(pyridin-3-yl)phenyl)propan-2-yl)-6-morpholino-1,3,5-triazin-2-amine] | > 500 | ≤ 100 | A’ | ≤ 100 | A’ | A’ | A’
3 | COc1cc(-c2ccccc2CC(C)(C)Nc2nc(N3CCOCC3)nc(-n3c(C(F)F)nc4ccccc43)n2)ccn1 [Compound A41, 4-(2-(difluoromethyl)-1H-benzo[d]imidazol-1-yl)-N-(1-(2-(2-methoxypyridin-4-yl)phenyl)-2-methylpropan-2-yl)-6-morpholino-1,3,5-triazin-2-amine] | > 500 | 100 to 200 | B’ | ≤ 100 | A’ | A’ | A’
4 | Cc1cc(-c2ccccc2CC(C)(C)Nc2nc(N3CCOCC3)nc(-n3c(C(F)F)nc4ccccc43)n2)ccn1 [Compound A43, 4-(2-(difluoromethyl)-1H-benzo[d]imidazol-1-yl)-N-(2-methyl-1-(2-(2-methylpyridin-4-yl)phenyl)propan-2-yl)-6-morpholino-1,3,5-triazin-2-amine] | > 500 | ≤ 100 | C’ | ≤ 100 | A’ | A’ | A’
5 | CC(C)(Cc1ccccc1-c1cn[nH]c1)Nc1nc(N2CCOCC2)nc(-n2c(C(F)F)nc3ccccc32)n1 [Compound A44, 4-(2-(difluoromethyl)-1H-benzo[d]imidazol-1-yl)-N-(1-(2-(1H-pyrazol-4-yl)phenyl)-2-methylpropan-2-yl)-6-morpholino-1,3,5-triazin-2-amine] | > 500 | ≤ 100 | A’ | ≤ 100 | A’ | A’ | A’
6 | Cn1cc(-c2ccccc2CC(C)(C)Nc2nc(N3CCOCC3)nc(-n3c(C(F)F)nc4ccccc43)n2)cn1 [Compound A45, 4-(2-(difluoromethyl)-1H-benzo[d]imidazol-1-yl)-N-(2-methyl-1-(2-(1-methyl-1H-pyrazol-4-yl)phenyl)propan-2-yl)-6-morpholino-1,3,5-triazin-2-amine] | > 500 | ≤ 100 | A’ | ≤ 100 | A’ | A’ | B’
7 | Cn1nccc1-c1ccccc1CC(C)(C)Nc1nc(N2CCOCC2)nc(-n2c(C(F)F)nc3ccccc32)n1 [Compound A46, 4-(2-(difluoromethyl)-1H-benzo[d]imidazol-1-yl)-N-(2-methyl-1-(2-(1-methyl-1H-pyrazol-5-yl)phenyl)propan-2-yl)-6-morpholino-1,3,5-triazin-2-amine] | > 500 | ≤ 100 | A’ | ≤ 100 | A’ | A’ | B’
8 | Cc1cccc(CC(C)(C)Nc2nc(N3CCOCC3)nc(-n3c(C(F)F)nc4ccccc43)n2)c1 [Compound A49, 4-(2-(difluoromethyl)-1H-benzo[d]imidazol-1-yl)-N-(2-methyl-1-m-tolylpropan-2-yl)-6-morpholino-1,3,5-triazin-2-amine] | > 500 | ≤ 100 | B’ | ≤ 100 | A’ | A’ | B’
9 | COc1cc(CC(C)(C)Nc2nc(N3CCOCC3)nc(-n3c(C(F)F)nc4ccccc43)n2)ccc1F [Compound A50, 4-(2-(difluoromethyl)-1H-benzo[d]imidazol-1-yl)-N-(1-(4-fluoro-3-methoxyphenyl)-2-methylpropan-2-yl)-6-morpholino-1,3,5-triazin-2-amine] | > 500 | ≤ 100 | B’ | ≤ 100 | A’ | A’ | A’
10 | CC(C)(Cc1ccc(F)cc1F)Nc1nc(N2CCOCC2)nc(-n2c(C(F)F)nc3ccccc32)n1 [Compound A51, 4-(2-(difluoromethyl)-1H-benzo[d]imidazol-1-yl)-N-(1-(2,4-difluorophenyl)-2-methylpropan-2-yl)-6-morpholino-1,3,5-triazin-2-amine] | > 500 | 100 to 200 | C’ | ≤ 100 | A’ | A’ | D’
11 | CC(C)(Cc1c(F)cccc1F)Nc1nc(N2CCOCC2)nc(-n2c(C(F)F)nc3ccccc32)n1 [Compound A52, 4-(2-(difluoromethyl)-1H-benzo[d]imidazol-1-yl)-N-(1-(2,6-difluorophenyl)-2-methylpropan-2-yl)-6-morpholino-1,3,5-triazin-2-amine] | > 500 | ≤ 100 | C’ | ≤ 100 | A’ | A’ | D’

From patent publication US12059422B2 (MEI Pharma, Inc., priority 2011, dated 2024)
